Measurements reported in patent publication US4810818A, “Process for producing alpha-aspartyl-l-phenylalanine methyl ester having an improved solubility” (Toyo Soda Manufacturing Co., Ltd, priority 1986, dated 1989).
Peptide text beside a SMILES is read from it.

Key:
[1] = as compared with the I type crystals; cited from earlier work
[2] = cited from earlier work
[3] = drying at a high temperature; part readily converted to a diketopiperadine derivative; cited from earlier work
[4] = Crystal form conversion (I type to II type) on drying; format: physicochemical; settings: irrespective of the drying method
[5] = Solubility: duration till 1 g of Aspartame crystals in 500 ml distilled water was completely dissolved as visually observed; format: physicochemical; settings: 1 g in 500 ml distilled water, 20° C., magnetic stirrer 200 r.p.m.; for Solubility (min) (duration till completely dissolved): Table 1; for Solubility (min.) (duration till completely dissolved): Table 2, dried at 50° C. then 70° C.
Method: In the Examples, the solubility of Aspartame crystals was determined by measuring the duration till 1 g of Aspartame crystals which was added to 500 ml of distilled water at 20° C., followed by stirring (by a magnetic stirrer at 200 r.p.m.), was completely dissolved as visually observed.

[6] = Ratio of I type crystals by X-ray diffraction specific peaks with calibration curve; format: physicochemical; settings: peaks at 2θ 4.4° (I) and 5.0° (II)
Method: Then, the ratio of the I type crystals was determined by comparing the strength ratio of each sample with the calibration curve.

[7] = Dispersibility and solubility in water (general statements); format: physicochemical; settings: as compared with the II type crystals
[8] = Table 2, dried at 50° C. then 70° C.

Structure (SMILES)	Solubility (min.) (duration till completely dissolved) [5] [min]	Ratio of I type crystals (%) [6, 8] [%]	other results
COC(=O)[C@H](Cc1ccccc1)NC(=O)[C@@H](N)CC(=O)O [Aspartame II type crystals, α-L-aspartyl-L-phenylalanine methyl ester] (H-Asp-Phe-OMe)	–	–	hygroscopicity [1]: low hygroscopicity; storage stability [1]: excellent storage stability
COC(=O)[C@H](Cc1ccccc1)NC(=O)[C@@H](N)CC(=O)O [Aspartame, α-L-aspartyl-L-phenylalanine methyl ester] (H-Asp-Phe-OMe)	–	–	dispersibility and solubility in water [2]: poor dispersibility and solubility in water; stability at a high temperature [3]: not stable at a high temperature; water content till which the I type crystal form is maintained [4]: about 15 % by weight
COC(=O)[C@H](Cc1ccccc1)NC(=O)[C@@H](N)CC(=O)O [Comparative Example 1, α-L-aspartyl-L-phenylalanine methyl ester] (H-Asp-Phe-OMe)	–	–	Solubility (min) (duration till completely dissolved) [5]: 13 to 14 min; Ratio of I type crystals (%) ([6]; Table 1): 25%
COC(=O)[C@H](Cc1ccccc1)NC(=O)[C@@H](N)CC(=O)O [Example 1, α-L-aspartyl-L-phenylalanine methyl ester] (H-Asp-Phe-OMe)	–	–	Solubility (min) (duration till completely dissolved) [5]: 5 to 6 min; Ratio of I type crystals (%) ([6]; Table 1): 98%
COC(=O)[C@H](Cc1ccccc1)NC(=O)[C@@H](N)CC(=O)O [Example 2, α-L-aspartyl-L-phenylalanine methyl ester] (H-Asp-Phe-OMe)	5 to 6	90	–
COC(=O)[C@H](Cc1ccccc1)NC(=O)[C@@H](N)CC(=O)O [Example 3, α-L-aspartyl-L-phenylalanine methyl ester] (H-Asp-Phe-OMe)	5 to 6	100	–
COC(=O)[C@H](Cc1ccccc1)NC(=O)[C@@H](N)CC(=O)O [Example 4, α-L-aspartyl-L-phenylalanine methyl ester] (H-Asp-Phe-OMe)	4 to 5	98	–
COC(=O)[C@H](Cc1ccccc1)NC(=O)[C@@H](N)CC(=O)O [Example 5, α-L-aspartyl-L-phenylalanine methyl ester] (H-Asp-Phe-OMe)	4 to 5	100	–
COC(=O)[C@H](Cc1ccccc1)NC(=O)[C@@H](N)CC(=O)O [I type crystals, α-L-aspartyl-L-phenylalanine methyl ester] (H-Asp-Phe-OMe)	–	–	solubility, I type versus II type crystals [7]: far superior in the solubility to the II type crystals
COC(=O)[C@H](Cc1ccccc1)NC(=O)[C@@H](N)CC(=O)O [compound 2, α-L-aspartyl-L-phenylalanine methyl ester] (H-Asp-Phe-OMe)	13 to 14	60	–
COC(=O)[C@H](Cc1ccccc1)NC(=O)[C@@H](N)CC(=O)O [compound 3, α-L-aspartyl-L-phenylalanine methyl ester] (H-Asp-Phe-OMe)	15 to 16	51	–
COC(=O)[C@H](Cc1ccccc1)NC(=O)[C@@H](N)CC(=O)O [compound 4, α-L-aspartyl-L-phenylalanine methyl ester] (H-Asp-Phe-OMe)	14 to 15	64	–
COC(=O)[C@H](Cc1ccccc1)NC(=O)[C@@H](N)CC(=O)O [compound 5, α-L-aspartyl-L-phenylalanine methyl ester] (H-Asp-Phe-OMe)	7 to 8	78	–
